Assay results reported in paper PMC9090415, “Discovery of small molecule inhibitors of Plasmodium falciparum apicoplast DNA polymerase” (Journal of Enzyme Inhibition and Medicinal Chemistry, 2022).

Biological target: P. falciparum apicoplast DNA polymerase (Pf-apPOL) (Plasmodium falciparum, UniProt Q8ILY1)
Test: Fluorescence-based high-throughput DNA polymerase assay (molecular beacon), primary screen and dose-response;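 on % inhibition Apol 40': compound concentration given in µM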
Type: biochemical
Details: for DNA Pol: 90 min, 10 µM
Procedure: The HT assay employs a molecular beacon, a stem-loop DNA template with a Cy3 dye and the Black Hole Quencher on the 3′ and 5′ ends of the DNA, respectively. Pf-apPOL concentration is based on a calculated absorptivity of ε280 = 56750 M^−1 cm^−1. Reactions were carried out at 25 °C, using Corning 3575 […] (well-volume, 20 µL). Assays testing for compound inhibition composed of reaction buffer (pH 7.9 in 50 mM potassium acetate, 20 mM Tris-acetate and 10 mM magnesium acetate), Pf-apPOL (20 nM), DNA substrate (20 nM), dNTPs (6 µM), and compound (10 µM in DMSO). The DNA and nucleotide substrates (dNTPs) were at concentrations of 20 nM and 6 µM, respectively, in the assay. Pf-apPOL was incubated in the reaction buffer with dNTPs and the compound of interest (10 µM, in the assay) at 25 °C for 10 min. The DNA substrate was then added and the reaction was allowed to proceed for 90 min at 25 °C.
Each assay plate contained 16 negative controls (no Pf-apPOL, DMSO present) and 16 positive controls (Pf-apPOL present, no DMSO). The fluorescence of each well was determined using a BioTek Synergy Neo fluorescence plate reader using excitation and emission wavelengths of 555 and 570 nm, respectively.
In the above, Min is the average of fluorescence emission of the negative controls (substrate only), Max the average fluorescence emission from the positive controls (enzyme + substrate), and Test the emission from the assays in the presence of compounds (enzyme + compound + substrates). […] […] The IC50 of each compound was determined using Equation (2): (2) IC50= Vmax/(1+ (I/IC50)^n)
In the above, n measures cooperativity, with n > 1 indicating synergistic binding of more than a single molecule of the compound.
To identify apPOL inhibitors we utilised our previously developed high-throughput DNA polymerase assay. The HT assay is based on a molecular beacon DNA template that forms a stem-loop with a Cy3 dye and the Black Hole Quencher on the 3′ and 5′ ends of the DNA, respectively. DNA polymerase activity extends an annealed primer through the stem region, displacing the fluorophore from the quencher, thereby increasing its fluorescence (Figure 1(A)). The assay accurately recapitulates the kinetic behaviour of apPOL, as measured through more conventional low-throughput gel-based assays. The Z′ factor for the assay described here was 0.9 across all plates (data not shown).
Figure 1. High-throughput screening. (A) The fluorescent-based DNA polymerase assay used to screen the compound libraries. The DNA template strand is a hairpin loop with a primer annealed to the loop. The 3’ end of the primer is 11 bases away from the 6 bp duplex. Strand displacement activity of the DNA polymerase separates the Cy3 dye from the Black hole quencher leading to an increase in fluorescent signal. (B) The high-throughput assay workflow. The DNA polymerase is incubated with […] compound for 10 min prior to addition of the hairpin substrate. The reaction is quenched at 3 different time points and the fluorescent signal is measured and % inhibition is determined using the provided equation.

[1] = 'DNA Pol' of the 186 hits list (screen value)
[2] = primary screen value, "DNA Pol"

Sequence of P. falciparum apicoplast DNA polymerase (Pf-apPOL) (Q8ILY1 entry or part of it): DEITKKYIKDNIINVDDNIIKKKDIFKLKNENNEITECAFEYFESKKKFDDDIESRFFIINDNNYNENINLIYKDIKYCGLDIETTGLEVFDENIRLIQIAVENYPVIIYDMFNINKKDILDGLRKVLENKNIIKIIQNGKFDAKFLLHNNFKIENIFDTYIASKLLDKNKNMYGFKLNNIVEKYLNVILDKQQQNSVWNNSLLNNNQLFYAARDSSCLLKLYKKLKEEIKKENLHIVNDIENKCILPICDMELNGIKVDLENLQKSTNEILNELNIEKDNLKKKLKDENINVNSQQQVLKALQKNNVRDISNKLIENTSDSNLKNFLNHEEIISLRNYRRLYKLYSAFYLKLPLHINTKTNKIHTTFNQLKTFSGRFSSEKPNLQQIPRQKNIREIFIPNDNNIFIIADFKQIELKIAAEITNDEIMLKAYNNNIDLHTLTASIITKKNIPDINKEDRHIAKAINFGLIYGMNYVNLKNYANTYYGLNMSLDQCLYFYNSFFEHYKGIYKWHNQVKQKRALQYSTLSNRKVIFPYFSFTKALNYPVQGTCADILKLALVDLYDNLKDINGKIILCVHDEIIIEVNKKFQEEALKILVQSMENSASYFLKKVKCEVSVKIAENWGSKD

In the case of C=CCOc1c(Br)cc(Br)cc1/C=C1\SC(=N)NC1=O [KU0051640], the “DNA Pol” value [1] is reported as 26, the “% inhibition Apo pol 10'” value (DRC-1, conc 2.5) is reported as 4.163% and the “% inhibition Apo pol 10'” value (DRC-1, conc 5) is reported as -1.099%. The “% inhibition Apo pol 10'” value (DRC-1, conc 10) was 11.4088%, the “% inhibition Apo pol 10'” value (DRC-1, conc 20) was 46.0852% and the “% inhibition Apo pol 10'” value (DRC-1, conc 40) was 88.1194%. For the same compound, the “% inhibition Apo pol 10'” value (DRC-1, conc 80) was 94.2659%, the “% inhibition Apol 90'” value (DRC-1, conc 2.5) was 2.139% and the “% inhibition Apol 90'” value (DRC-1, conc 5) was -4.076%. For the same compound, the “% inhibition Apol 90'” value (DRC-1, conc 10) was 7.3276%, the “% inhibition Apol 90'” value (DRC-1, conc 20) was 38.2187% and the “% inhibition Apol 90'” value (DRC-1, conc 40) was 86.7215%. For the same compound, the “% inhibition Apol 90'” value (DRC-1, conc 80) was 95.0722%, the “% inhibition apPOL 180'” value (DRC-1, conc 2.5) was -0.2194% and the “% inhibition apPOL 180'” value (DRC-1, conc 5) was -7.333%. The “% inhibition apPOL 180'” value (DRC-1, conc 10) was 0.9345%, the “% inhibition apPOL 180'” value (DRC-1, conc 20) was 26.8822% and the “% inhibition apPOL 180'” value (DRC-1, conc 40) was 86.6627%. For the same compound, the “% inhibition apPOL 180'” value (DRC-1, conc 80) was 95.6515%, the “% inhibition Apo pol 5'” value (DRC-2, conc 2.5) was 11% and the “% inhibition Apo pol 5'” value (DRC-2, conc 5) was 7%. For the same compound, the “% inhibition Apo pol 5'” value (DRC-2, conc 10) was 20%, the “% inhibition Apo pol 5'” value (DRC-2, conc 20) was 43% and the “% inhibition Apo pol 5'” value (DRC-2, conc 40) was 54%. For the same compound, the “% inhibition Apo pol 5'” value (DRC-2, conc 80) was 54%, the “% inhibition Apo pol 5'” value (DRC-2, concentration 5) was 7% and the “% inhibition Apo pol 5'” value (DRC-2, concentration 40) was 54%. For the same compound, the “% inhibition Apo pol 5'” value (DRC-2, concentration 80) was 54%, the “% inhibition Apol 40'” value (DRC-2, conc 2.5) was 12% and the “% inhibition Apol 40'” value (DRC-2, conc 5) was 7%. The “% inhibition Apol 40'” value (DRC-2, conc 10) was 24%, the “% inhibition Apol 40'” value (DRC-2, conc 20) was 54% and the “% inhibition Apol 40'” value (DRC-2, conc 40) was 72%. For the same compound, the “% inhibition Apol 40'” value (DRC-2, conc 80) was 75%, the “% inhibition Apol 40'” value (DRC-2, concentration 2.5) was 12% and the “% inhibition Apol 40'” value (DRC-2, concentration 5) was 7%. The “% inhibition Apol 40'” value (DRC-2, concentration 20) was 54%, the “% inhibition ApPOL 90'” value (DRC-2, conc 2.5) was 12% and the “% inhibition ApPOL 90'” value (DRC-2, conc 5) was 6.55%. The “% inhibition ApPOL 90'” value (DRC-2, conc 10) was 23%, the “% inhibition ApPOL 90'” value (DRC-2, conc 20) was 56% and the “% inhibition ApPOL 90'” value (DRC-2, conc 40) was 76%. The “% inhibition ApPOL 90'” value (DRC-2, conc 80) was 79%, the “% inhibition ApPOL 90'” value (DRC-2, concentration 2.5) was 12% and the “% inhibition ApPOL 90'” value (DRC-2, concentration 40) was 76%. For the same compound, the “% inhibition apPOL 180'” value (DRC-2, conc 2.5) was 9%, the “% inhibition apPOL 180'” value (DRC-2, conc 5) was 4% and the “% inhibition apPOL 180'” value (DRC-2, conc 10) was 17%. For the same compound, the “% inhibition apPOL 180'” value (DRC-2, conc 20) was 49%, the “% inhibition apPOL 180'” value (DRC-2, conc 40) was 76% and the “% inhibition apPOL 180'” value (DRC-2, conc 80) was 81%. For the same compound, the “% inhibition apPOL 180'” value (DRC-2, concentration 40) was 76% and the “DNA Pol” value [2] was 26.

O=c1nc(/C=C/c2ccc(Br)cc2)oc2ccccc12 [KU0052629] was tested, and the “DNA Pol” value [1] was 39, the “% inhibition Apo pol 10'” value (DRC-1, conc 2.5) was -0.8795% and the “% inhibition Apo pol 10'” value (DRC-1, conc 5) was 1.877%. For the same compound, the “% inhibition Apo pol 10'” value (DRC-1, conc 10) was 5.765%, the “% inhibition Apo pol 10'” value (DRC-1, conc 20) was 17.2321% and the “% inhibition Apo pol 10'” value (DRC-1, conc 40) was 88.0772%. The “% inhibition Apo pol 10'” value (DRC-1, conc 80) was 96.3156%, the “% inhibition Apol 90'” value (DRC-1, conc 2.5) was -3.77% and the “% inhibition Apol 90'” value (DRC-1, conc 5) was -1.711%. For the same compound, the “% inhibition Apol 90'” value (DRC-1, conc 10) was 2.797%, the “% inhibition Apol 90'” value (DRC-1, conc 20) was 11.2319% and the “% inhibition Apol 90'” value (DRC-1, conc 40) was 85.0713%. The “% inhibition Apol 90'” value (DRC-1, conc 80) was 92.172%, the “% inhibition apPOL 180'” value (DRC-1, conc 2.5) was -7.96% and the “% inhibition apPOL 180'” value (DRC-1, conc 5) was -5.094%. For the same compound, the “% inhibition apPOL 180'” value (DRC-1, conc 10) was -1.853%, the “% inhibition apPOL 180'” value (DRC-1, conc 20) was 4.7876% and the “% inhibition apPOL 180'” value (DRC-1, conc 40) was 80.0065%. The “% inhibition apPOL 180'” value (DRC-1, conc 80) was 94.1472%, the “% inhibition Apo pol 5'” value (DRC-2, conc 2.5) was 6% and the “% inhibition Apo pol 5'” value (DRC-2, conc 5) was -1.24%. The “% inhibition Apo pol 5'” value (DRC-2, conc 10) was 6%, the “% inhibition Apo pol 5'” value (DRC-2, conc 20) was 35% and the “% inhibition Apo pol 5'” value (DRC-2, conc 40) was 60%. For the same compound, the “% inhibition Apo pol 5'” value (DRC-2, conc 80) was 61%, the “% inhibition Apo pol 5'” value (DRC-2, concentration 2.5) was 6% and the “% inhibition Apo pol 5'” value (DRC-2, concentration 10) was 6%. For the same compound, the “% inhibition Apol 40'” value (DRC-2, conc 2.5) was 8%, the “% inhibition Apol 40'” value (DRC-2, conc 5) was -2.13% and the “% inhibition Apol 40'” value (DRC-2, conc 10) was 5.6%. For the same compound, the “% inhibition Apol 40'” value (DRC-2, conc 20) was 48%, the “% inhibition Apol 40'” value (DRC-2, conc 40) was 77% and the “% inhibition Apol 40'” value (DRC-2, conc 80) was 75%. For the same compound, the “% inhibition Apol 40'” value (DRC-2, concentration 2.5) was 8%, the “% inhibition ApPOL 90'” value (DRC-2, conc 2.5) was 8% and the “% inhibition ApPOL 90'” value (DRC-2, conc 5) was -2%. For the same compound, the “% inhibition ApPOL 90'” value (DRC-2, conc 10) was 5%, the “% inhibition ApPOL 90'” value (DRC-2, conc 20) was 45% and the “% inhibition ApPOL 90'” value (DRC-2, conc 40) was 79%. The “% inhibition ApPOL 90'” value (DRC-2, conc 80) was 79%, the “% inhibition ApPOL 90'” value (DRC-2, concentration 2.5) was 8% and the “% inhibition ApPOL 90'” value (DRC-2, concentration 40) was 79%. For the same compound, the “% inhibition ApPOL 90'” value (DRC-2, concentration 80) was 79%, the “% inhibition apPOL 180'” value (DRC-2, conc 2.5) was 6% and the “% inhibition apPOL 180'” value (DRC-2, conc 5) was -4%. For the same compound, the “% inhibition apPOL 180'” value (DRC-2, conc 10) was 2.72%, the “% inhibition apPOL 180'” value (DRC-2, conc 20) was 37% and the “% inhibition apPOL 180'” value (DRC-2, conc 40) was 79%. For the same compound, the “% inhibition apPOL 180'” value (DRC-2, conc 80) was 79%, the “% inhibition apPOL 180'” value (DRC-2, concentration 2.5) was 6% and the “% inhibition apPOL 180'” value (DRC-2, concentration 40) was 79%. The “% inhibition apPOL 180'” value (DRC-2, concentration 80) was 79% and the “DNA Pol” value [2] was 39.
